Data as given in patent US12485117B2, “Compositions and methods for activating signaling through the CB1 cannabinoid receptor for treating and preventing diseases and disorders characterized by abnormal cellular accumulation of sphingolipids such as sphingomyelin” (Wylder Nation Foundation, priority 2018, dated 2025).

How the values were obtained:
[1] = test system: cultured primary hippocampal neurons from ASMko mice; assay: Sphingomyelin levels by enzymatic assay in cultured primary hippocampal neurons from ASMko mice; assay type: cell-based, mouse
Text: FIGS. 5A-5D show sphingomyelin and endocannabinoid levels in cultured primary hippocampal neurons and hippocampal tissue, respectively, from ASMko and wildtype mice.
Statistical significance Student's t-test, *P<0.05, **P<0.005, n=3 independent cultures.
Statistical significance Student's t-test, **P<0.005, n=3 independent cultures.
Anandamide (AEA) is the major endogenous CB1 ligand. We therefore tested whether increased levels of anandamide affected sphingomyelin levels in cultured primary hippocampal neurons from ASMko mice. Anandamide was increased in two ways: • 1. By incubating the neuronal cultures with exogenous anandamide; and • 2. By incubating the neuronal cultures with PF-04457845, which is an inhibitor of the anandamide hydrolytic enzyme FAAH. Inhibition of FAAH causes accumulation of anandamide by inhibiting FAAH-mediated hydrolyzation of anandamide.
The following experiments were performed in three independent cultures of hippocampal neurons derived from ASMko mice. Treatments were done at 11-13 days in vitro when these cells are considered mature and functional.
To set the optimal conditions for such hydrolysis in terms of concentration and time of incubation, anandamide was added to the culture medium of mature ASMko hippocampal neurons at 0, 5, 25, 50 and 100 μM for 30 minutes or 1 hour. […] The optimal conditions for SM degradation were in a range of concentration of 25-50 μM for 1 hour. […] We therefore decided to use 25 μM anandamide for 1-hour incubation time in our next experiments.
Similar to the anandamide dose/time response experiment above, we performed another dose response experiment using URB597 (URB), an inhibitor of the anandamide-hydrolyzing enzyme FAAH, to be used as reference for the other FAAH inhibitors. The experiments were done in the presence or absence of exogenous anandamide. URB was added to the culture medium of ASMko mature neurons at 0, 5, 25 and 50 μM for 1 hour with or without □□ μM anandamide.
We next compared URB efficacy to reduce SM levels with that of other FAAH inhibitors PF-04457845 (PF) and JNJ-1661010 (JNJ).

wt and ASMko mice [2] = assay: Weekly body weight during 8-week oral treatment; assay type: in vivo, mouse; conditions: 0.3 mg/kg oral gavage every three days, 8 weeks
Procedure: We divided wt and ASMko into four groups: wt, wt+FAAHi, ASMko, ASMko+FAAHi. Each group included 14 animals with females and males in equal proportions.
(§1) Treatment started at 7 weeks of age and continued for 8 weeks. PF-04457845 was dissolved in 0.9% NaCl and delivered through oral gavage at a dose of 0.3 mg/kg every three days. We chose this dose based on the studies published by Ahn et al., (J Pharm Exp Ther 2011). Control groups received same volume of 0.9% NaCl without PF-04457845.
Behavioral analyses were performed in the last 2 weeks of treatment while still administering the drug. Then, half of the mice were sacrificed for biochemical and histological analysis and the other half continued receiving the treatment to monitor life span.

wt and ASMko mice [3] = assay: Accelerating Rotarod (motor abilities); assay type: in vivo, mouse; conditions: 0.3 mg/kg every three days
Procedure: as §1
Cerebellar dependent motor abilities were monitored in an accelerating Rotarod (FIG. 12) on which the mice were trained for two days at a constant speed: the first day four times at 4 rpm for 1 min and the second day four times at 8 rpm for 1 min. On the third day, the Rotarod was set to progressively accelerate from 4 to 40 rpm for 5 min and the mice were tested four times. During the accelerating trials, the latency to fall from the rod was measured. Non-treated ASMko mice spent less time on the rod in the four trials than wt mice, indicative of impaired motor abilities.

anandamide levels = assay: Anandamide levels by mass spectrometry in the hippocampus; assay type: in vivo, mouse; conditions: 0.3 mg/kg every three days
Procedure: FIGS. 18A-18B show hippocampal anandamide and CB1 levels in wt and ASMko mice treated or not treated with PF-04457845. […] Graphs show mean±SEM CB1 intensity in arbitrary units (n=5, *p<0.05).
as §1
PF-04457845 inhibits the enzyme (FAAH) that hydrolyzes the endocannabinoid anandamide, which in turn activates the CB1 receptor leading to neutral sphingomyelinase activation and sphingomyelin hydrolysis. To determine the effects of PF-04457845 treatment in the endocannabinoid system we analyzed anandamide and CB1 levels in the brain of PF-04457845 treated and non-treated mice.

wt and ASMko mice [4] = assay: Acute toxicity: H&E staining of brain and liver; assay type: in vivo, mouse; conditions: any of the doses
Procedure: FIGS. 27A-27C show H&E staining in wt and ASMko mice treated or not treated with PF-04457845.
(§2) We divided wt and ASMko mice of 4.5 months of age in six experimental groups: ASMko control (n=3), ASMko low dose (n=3), ASMko intermediate dose (n=3), ASMko high dose (n=3), wt control (n=3), wt high dose (n=3). PF-04457845, provided as powder, was dissolved in 0.9% NaCl and administered to mice through oral gavage. Vehicle groups received same volume of 0.9% NaCl.
Brain and liver tissue was stained with H&E to evaluate histopathological features.
In the liver foam cells showing white vacuoles indicative of lipid accumulation were evident in vehicle treated ASMko mice compared to wt (FIG. 28).

macrophages = assay: Acute toxicity: liver inflammation by F4/80 immunofluorescence (macrophage cell area); assay type: in vivo, mouse; conditions: ASMko mice
Procedure: as §2
Inflammation was analyzed in the liver by immunofluorescence against the macrophage marker F4/80. Under inflammatory conditions macrophages acquire an amoeboid shape indicative of maximal activation.

pediatric ASMD patient = assay: Single patient preliminary clinical trial: liver enzymes ALT and AST; assay type: in vivo, human
Text: Based on the compelling safety and efficacy data from the ASMko mouse model, we submitted an expanded access request to the Food and Drug Administration for a single patient preliminary clinical trial to assess the effect of PF-04457845 administration to a single pediatric ASMD patient. The FDA approved the trial, and it is presently ongoing. The patient received their first does of PF-04457845 (which is being administered via NG-tube delivery) nearly one year ago now, and the patient will continue to be monitored for improvement in ASMD-related symptoms and/or markers.
Although clinical trial data is not available to us yet, it is worth noting as per the normal standard of care for this patient, weekly or biweekly monitoring of liver enzymes alanine aminotransferase (ALT) and aspartate transaminase (AST) has been ongoing since before initiation of the trial and these analyses are ongoing. Elevated blood levels of AST and ALT are seen in 50%-75% of ASMD patients (McGovern M, et al., Orphanet J Rare Dis. 2017; 12: 41) and are indicative of liver damage caused by the progression of the disease. […] Moreover, ALT/AST ratios appear stable.

[5] = about one year of treatment via NG-tube, preliminary

`O=C(Nc1cccnn1)N1CCC(=Cc2cccc(Oc3ccc(C(F)(F)F)cn3)c2)CC1` [PF-04457845] was tested, and the SM hydrolysis ([1]; 50 μM and 1 hour (FIG. 8)) was “promoted SM hydrolysis”, the sphingomyelin levels ([1]; ASMko neurons, 1 hour incubation (FIG. 5A)) was “reduced sphingomyelin levels” and the body weight gain (wt and ASMko mice [2]; ASMko mice) was “significantly improved”. For the same compound, the body weight gain (wt and ASMko mice [2]; wt mice) was “not affected”, the “time on the rod (Rotarod)” value (wt and ASMko mice [3]; ASMko mice, second, third and fourth trials) was “significantly improved the time on the rod” and the “time on the rod (Rotarod), treated versus non-treated” value (wt and ASMko mice [3]; wt mice) was “No differences”. The “increase of anandamide levels in the hippocampus” value (anandamide levels; ASMko mice) was 1.96 fold, the “increase of anandamide levels in the hippocampus” value (anandamide levels; wt mice) was 2.09 fold and the “H&E staining of liver (foam cell pattern)” value (wt and ASMko mice [4]; ASMko mice) was “did not significantly alter this pattern”. The “H&E staining of hippocampus, cerebellum and cortex” value (wt and ASMko mice [4]; wt and ASMko mice) was “did not cause significant changes in H&E staining”, the “liver macrophage amoeboid morphology / cell area” value (macrophages; single dose 0.1 mg/kg) was “did not significantly alter macrophage amoeboid morphology” and the “liver macrophage cell area” value (macrophages; single dose 1 mg/kg) was “remarkably reduced macrophage cell area to levels similar to wt mice”. The “liver macrophage cell area” value (macrophages; single dose 5 mg/kg) was “remarkably reduced macrophage cell area to levels similar to wt mice”, the ALT/AST ratios (pediatric ASMD patient; about one year of treatment) was “stable” and the “ALT, current value relative to pre-treatment” value (pediatric ASMD patient; [5]) was “approximately half”. The “AST, current value relative to pre-treatment” value (pediatric ASMD patient; [5]) was “approximately half” and the tolerability (pediatric ASMD patient; about one year of treatment, preliminary) was “well tolerated without signs of liver toxicity”.
